In paper PMC7749516, “Safety and nonclinical and clinical pharmacokinetics of PC945, a novel inhaled triazole antifungal agent” (Pharmacology Research & Perspectives, 2020):
≈ marks a conversion by molar mass, not a printed value.

Assays:
[1] = tested on: CYP1A2, 2B6, 2C8, 2C9, 2C19, 2D6; test: CYP inhibition in pooled human liver microsomes, other isoforms; format: in vitro ADME
Protocol: PC945 and posaconazole (Sigma‐Aldrich, UK) were added to the pooled human liver microsomal samples (Pharmaron Rushden, UK) at concentrations of 0, 0.03, 0.1, 0.3, 1, 3, and 5 μmol/L. The mixtures were preincubated at 37°C for 0 or 30 minutes before the addition of selective CYP substrates. Microsomal reactions were terminated by adding 100 μL of cold (4°C) methanol containing appropriate internal standard. Aliquots (150 μL) of each sample were centrifuged and the supernatant was used for substrate analysis by ultra‐performance liquid chromatography with tandem mass spectrometry (UPLC‐MS/MS) on the day of incubations.
Change in substrate concentration was measured to determine the extent of CYP‐isoform inhibition. The 30‐minute preincubations were performed to determine whether there was time‐dependent inhibition of any CYP isoform (CYP1A2, 2B6, 2C8, 2C9, 2C19, 2D6, and 3A4/5). Untreated control contained only solvent, dimethyl sulfoxide (≤0.5% [v/v]). Positive control contained a chemical inhibitor selective for each CYP enzyme in the […].

[2] = Rat lung tissue concentration after 14 days of inhaled dosing; format: in vivo, rats (Han Wistar); settings: for Lung concentration: lungs ~22 hours after final dose (Day 15)
Protocol: Portions of rat lung tissue were homogenized in methanol:water (50:50; 15 mL for 1 g tissue). PC945 concentrations in tissue homogenates were analyzed using LC‐MS/MS. A control rat lung sample (B&K Universal Ltd, Hull, UK) was used as standards and quality control.

CYP3A4/5 = test: CYP inhibition in pooled human liver microsomes; format: in vitro ADME
[3] = Clinical pharmacokinetics, single inhaled dose in subjects with mild asthma (Cohort 3); format: in vivo, human; settings: single inhaled 5 mg
Source text: Part one consisted of a single dose escalation study (Cohort 1) and a repeat dose study (Cohort 2) of inhaled PC945 in healthy subjects. Part two comprised a single dose study of inhaled PC945 in subjects with mild asthma (Cohort 3). The doses selected were predicted to achieve target lung concentrations above the IC90/MIC90 for A. fumigatus (based on data from a range of in vitro and in vivo systems) throughout a 24‐hour period and with a suitable safety margin based on animal toxicology data.
In Cohort 3, nine subjects with mild asthma (six males and three females; mean age: 37.7 years, mean weight: 82.70 kg, mean BMI: 26.48 kg/m^2) received a single dose of PC945 5 mg or placebo (PC945:placebo = 2:1).
Serial blood samples were collected to determine plasma PC945 concentrations. For the single dose study in healthy subjects and in subjects with mild asthma, blood samples were collected predose and at 0.25, 0.5, 1, 2, 4, 6, 8, 24, 30, and 48 hours postend of inhalation and at the follow‐up visit. For the repeat dose study, blood samples were collected (a) predose and at 0.25, 0.5, 1, 2, 4, 6, 8, 10, 12, and 24 hours postend of inhalation on Days 1 and 7, and 30 and 48 hours on Day 7; (b) predose on Days 5 and 6; (c) at the follow‐up visit.

[4] = Toxicokinetics/toxicity in rats, daily 2-hour inhalation for 14 days (plasma); settings: for Ro (accumulation ratio): AUC0‐24h (Day14)/AUC0‐24h (Day 1)
Source text: (§1) Each dose was inhaled over a 2‐hour period once daily for 14 days.
(§2) Lower limit of quantification of the assay was 10 pg/mL for clinical samples and 100 pg/mL for rat and dog plasma samples.

[5] = Toxicokinetics/toxicity in dogs, daily 2-hour inhalation for 14 days (plasma); settings: for Ro (accumulation ratio): AUC0‐24h (Day14)/AUC0‐24h (Day 1)
Source text: as §1, §2

[6] = substrate midazolam, 30‐minute preincubation
[7] = female rats, Day 14 of inhaled 2.0 mg/kg/day
[8] = female rats, Day 14 of inhaled 7.1 mg/kg/day
[9] = female rats, Day 14 of inhaled 16.6 mg/kg/day
[10] = female rats, single inhaled dose 2.0 mg/kg (Day 1)
[11] = female rats, single inhaled dose 7.1 mg/kg (Day 1)
[12] = female rats, single inhaled dose 16.6 mg/kg (Day 1)
[13] = male rats, Day 14 of inhaled 2.0 mg/kg/day
[14] = male rats, Day 14 of inhaled 7.1 mg/kg/day
[15] = male rats, Day 14 of inhaled 16.6 mg/kg/day
[16] = male rats, single inhaled dose 2.0 mg/kg (Day 1)
[17] = male rats, single inhaled dose 7.1 mg/kg (Day 1)
[18] = male rats, single inhaled dose 16.6 mg/kg (Day 1)
[19] = female dogs, Day 14 of inhaled 1.7 mg/kg/day, mean
[20] = female dogs, Day 14 of inhaled 5.3 mg/kg/day, mean
[21] = female dogs, Day 14 of inhaled 18.1 mg/kg/day, mean
[22] = female dogs, single inhaled dose 1.7 mg/kg, mean ± SD
[23] = female dogs, single inhaled dose 5.3 mg/kg, mean ± SD
[24] = female dogs, single inhaled dose 18.1 mg/kg, mean ± SD
[25] = male dogs, Day 14 of inhaled 1.7 mg/kg/day, mean
[26] = male dogs, Day 14 of inhaled 5.3 mg/kg/day, mean
[27] = male dogs, Day 14 of inhaled 18.1 mg/kg/day, mean
[28] = male dogs, single inhaled dose 1.7 mg/kg, mean ± SD
[29] = male dogs, single inhaled dose 5.3 mg/kg, mean ± SD
[30] = male dogs, single inhaled dose 18.1 mg/kg, mean ± SD

## Cc1cc(N2CCN(c3ccc(C(=O)Nc4ccc(F)cc4)cc3)CC2)ccc1OC[C@@H]1CO[C@@](Cn2cncn2)(c2ccc(F)cc2F)C1 [PC945]
[1]; 30‐minute preincubation
  Time‐dependent effect on other CYP isoforms: no time‐dependent effect
[1]; up to 5 μmol/L
  Cytochrome P450 inhibitory interaction, isoforms other than CYP3A4/5: only cytochrome P450 inhibitory interaction observed for PC945 was that on CYP3A4/5 substrates
[2]; female rats, 2.0 mg/kg/day
  Ratio lung tissue concentration (Day 15)/plasma C max (Day 14): 2610
[2]; female rats, 2.0 mg/kg/day for 14 days
  Lung concentration: 50 100 ng/mL
[2]; female rats, 7.1 mg/kg/day
  Ratio lung tissue concentration (Day 15)/plasma C max (Day 14): 2740
[2]; female rats, 7.1 mg/kg/day for 14 days
  Lung concentration: 138 000 ng/mL
[2]; female rats, 16.6 mg/kg/day
  Ratio lung tissue concentration (Day 15)/plasma C max (Day 14): 2340
[2]; female rats, 16.6 mg/kg/day for 14 days
  Lung concentration: 216 000 ng/mL
[2]; male rats
  Mean lung:plasma ratio: ~ 4300 fold
[2]; male rats, 2.0 mg/kg/day
  Ratio lung tissue concentration (Day 15)/plasma C max (Day 14): 3450
[2]; male rats, 2.0 mg/kg/day for 14 days
  Lung concentration: 42 400 ng/mL
[2]; male rats, 7.1 mg/kg/day
  Ratio lung tissue concentration (Day 15)/plasma C max (Day 14): 5020
[2]; male rats, 7.1 mg/kg/day for 14 days
  Lung concentration: 119 000 ng/mL
[2]; male rats, 16.6 mg/kg/day
  Ratio lung tissue concentration (Day 15)/plasma C max (Day 14): 4280
[2]; male rats, 16.6 mg/kg/day for 14 days
  Lung concentration: 329 000 ng/mL
[2]; rats, all dose levels, after 14‐day inhaled dosing
  Lung concentration relative to plasma: > 2000 fold
CYP3A4/5
  Shift in potency for CYP3A4/5 following preincubation: fivefold
CYP3A4/5; microsomes
  IC50, CYP3A4/5: 0.168 µg/mL (≈ 0.246 µM)
CYP3A4/5; [6]
  IC50: 17 nM
  IC50, CYP3A4/5: 0.0116 µg/mL (≈ 0.017 µM)
CYP3A4/5; substrate midazolam, without preincubation, pooled human liver microsomes
  IC50: 85 nM
[3]
  AUC0–24h: 4.95 ng·h/mL
  median t max: 4 h
[3]; geometric mean
  C max: 0.335 ng/mL
[4]; female rats, 2.0 mg/kg/day
  Ro (accumulation ratio): 1.84
[4]; female rats, 16.6 mg/kg/day
  Ro (accumulation ratio): 2.53
[4]; [7]
  AUC0‐24h: 336 ng·h/mL
  C max: 19.2 ng/mL
[4]; [8]
  AUC0‐24h: 749 ng·h/mL
  C max: 50.4 ng/mL
[4]; [9]
  AUC0‐24h: 1850 ng·h/mL
  C max: 92.3 ng/mL
[4]; [10]
  AUC0‐24h: 183 ng·h/mL
  C max: 10.5 ng/mL
[4]; [11]
  AUC0‐24h: 416 ng·h/mL
  C max: 24.8 ng/mL
[4]; [12]
  AUC0‐24h: 731 ng·h/mL
  C max: 41.3 ng/mL
[4]; male rats, 2.0 mg/kg/day
  Ro (accumulation ratio): 1.96
[4]; [13]
  AUC0‐24h: 202 ng·h/mL
  C max: 12.3 ng/mL
[4]; [14]
  AUC0‐24h: 424 ng·h/mL
  C max: 23.7 ng/mL
[4]; [15]
  AUC0‐24h: 1140 ng·h/mL
  C max: 76.9 ng/mL
[4]; [16]
  AUC0‐24h: 103 ng·h/mL
  C max: 7.3 ng/mL
[4]; [17]
  AUC0‐24h: 217 ng·h/mL
  C max: 15.8 ng/mL
[4]; [18]
  AUC0‐24h: 426 ng·h/mL
  C max: 26.0 ng/mL
[4]; rat, highest dose tested
  Margin over the clinical AUC following a 5 mg dose: 12 fold
[4]; rats, after the 2-hour inhalation
  Time of C max after a single dose: 4 h
[4]; rats, highest dose tested
  Systemic toxicity: No systemic toxicity
[4]; rats, single 2-hour inhaled dose (Day 1)
  Time of C max after the start of dosing: 6 h
[5]; dog, highest dose tested
  Margin over the clinical AUC following a 5 mg dose: threefold
[5]; dogs, after the 2‐hour dosing period
  Time of C max after a single dose: immediately
[5]; dogs, highest dose tested
  Systemic toxicity: No systemic toxicity
[5]; female dogs, 1.7 mg/kg/day
  Ro (accumulation ratio): 2.27
[5]; female dogs, 5.3 mg/kg/day
  Ro (accumulation ratio): 1.88
[5]; female dogs, 18.1 mg/kg/day
  Ro (accumulation ratio): 1.26
[5]; [19]
  AUC0‐24h: 27.7 ng·h/mL
  C max: 2.3 ng/mL
[5]; [20]
  AUC0‐24h: 73.3 ng·h/mL
  C max: 5.5 ng/mL
[5]; [21]
  AUC0‐24h: 114 ng·h/mL
  C max: 7.8 ng/mL
[5]; [22]
  AUC0‐24h: 12.2 ± 2.9 ng·h/mL
  C max: 1.5 ± 0.5 ng/mL
[5]; [23]
  AUC0‐24h: 39.0 ± 2.7 ng·h/mL
  C max: 4.3 ± 0.7 ng/mL
[5]; [24]
  AUC0‐24h: 90.6 ± 6.7 ng·h/mL
  C max: 10.2 ± 1.3 ng/mL
[5]; male dogs, 1.7 mg/kg/day
  Ro (accumulation ratio): 2.06
[5]; male dogs, 5.3 mg/kg/day
  Ro (accumulation ratio): 1.84
[5]; male dogs, 18.1 mg/kg/day
  Ro (accumulation ratio): 2.29
[5]; [25]
  AUC0‐24h: 35.5 ng·h/mL
  C max: 2.8 ng/mL
[5]; [26]
  AUC0‐24h: 70.9 ng·h/mL
  C max: 5.6 ng/mL
[5]; [27]
  AUC0‐24h: 203 ng·h/mL
  C max: 13.5 ng/mL
[5]; [28]
  AUC0‐24h: 17.2 ± 3.5 ng·h/mL
  C max: 2.2 ± 0.3 ng/mL
[5]; [29]
  AUC0‐24h: 38.5 ± 1.8 ng·h/mL
  C max: 4.6 ± 0.4 ng/mL
[5]; [30]
  AUC0‐24h: 88.5 ± 25.8 ng·h/mL
  C max: 9.7 ± 2.4 ng/mL
